Experiment [1] concerns the target hCB1 K3.28(192)A mutant receptor (Homo sapiens, UniProt P21554, K192A). The experiment is described as follows: Competitive binding assay, hCB1 K3.28. The settings on record: radioligand [3H]-CP55940.
The target in experiment [2] is T1, hCB2 C6.47(257)A mutant receptor (Homo sapiens, UniProt P34972, C257A). The experiment in a line: Inhibition of forskolin-stimulated cAMP accumulation, hCB2 C6.47. The class given is cell-based. The settings on record: read-out: IC50, inhibition of forskolin-stimulated cAMP accumulation; HEK293 cells, 5 μM forskolin, 5 min; mean (95% CI). Background: Changes in cAMP serve as a functional read-out for many G protein-coupled receptors.
T1 sequence (P34972 whole entry C257A): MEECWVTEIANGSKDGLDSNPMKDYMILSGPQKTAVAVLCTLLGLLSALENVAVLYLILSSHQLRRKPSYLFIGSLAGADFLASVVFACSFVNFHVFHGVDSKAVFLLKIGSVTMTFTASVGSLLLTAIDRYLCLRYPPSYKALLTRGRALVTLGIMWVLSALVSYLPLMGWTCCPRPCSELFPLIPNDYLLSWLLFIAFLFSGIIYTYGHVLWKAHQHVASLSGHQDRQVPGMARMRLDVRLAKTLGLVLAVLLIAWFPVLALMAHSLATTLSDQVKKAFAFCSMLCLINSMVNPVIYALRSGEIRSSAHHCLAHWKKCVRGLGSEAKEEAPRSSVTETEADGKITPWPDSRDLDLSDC

In experiment [3] the target is T2, hCB2 C6.47(257)S mutant receptor (Homo sapiens, UniProt P34972, C257S). The experiment is described as follows: Affinity-labeling assay, hCB2 C6.47. The settings on record: 9 nM AM-841, 1 hr, 30°C, washed.
T2 sequence (P34972 whole entry C257S): as the sequence (P34972 whole entry C257A) above, with A257S counted along it
Experiment [4] addresses hCB2 K3.28(109)A mutant receptor (Homo sapiens, UniProt P34972, K109A). The experiment in a line: Competitive binding assay, hCB2 K3.28. As to conditions: radioligand [3H]-CP55940; mean (95% CI).
In experiment [5] the target is T1, hCB2 C6.47(257)A mutant receptor. The experiment in a line: Affinity-labeling assay, hCB2 C6.47. The settings on record: 9 nM AM-841, 1 hr, 30°C, washed.
Experiment [6] deals with T3, WT hCB2 receptor (Homo sapiens, UniProt P34972). The experiment is described as follows: Affinity-labeling assay.
T3 sequence (P34972 whole entry): as the sequence (P34972 whole entry C257A) above, with A257C counted along it
Experiment [7] addresses T2, hCB2 C6.47(257)S mutant receptor. The experiment in a line: Competitive binding assay, hCB2 C6.47. As to conditions: for Ki: mean (95% CI); for increase in affinity over WT hCB2 receptor: C6.47(257)S vs WT.
In experiment [8] the target is hCB2 C7.42(288)S mutant receptor (Homo sapiens, UniProt P34972, C288S). The experiment in a line: Affinity-labeling assay, hCB2 C7.42. As to conditions: 9 nM AM-841, 1 hr, 30°C, washed.
Sequence of hCB2 C7.42(288)S mutant receptor (P34972 whole entry C288S): as the sequence (P34972 whole entry C257A) above, with A257C, C288S counted along it
The target of experiment [9] is hCB2 C7.38(284)S mutant receptor (Homo sapiens, UniProt P34972, C284S). The experiment is described as follows: Affinity-labeling assay, hCB2 C7.38. As to conditions: 9 nM AM-841, 1 hr, 30°C, washed.
Sequence of hCB2 C7.38(284)S mutant receptor (P34972 whole entry C284S): as the sequence (P34972 whole entry C257A) above, with A257C, C284S counted along it
The subject of experiment [10] is C6.47(257)K, C6.47(257)I, C6.47(257)L, C6.47(257)D, and C6.47(257)Y hCB2 receptor mutants. The experiment is described as follows: Competitive binding assay, further C6.47. More on the design: species or system human. The settings on record: radioligand [3H]-CP55940; data not shown.
In experiment [11] the target is T1, hCB2 C6.47(257)A mutant receptor. The experiment in a line: Competitive binding assay, hCB2 C6.47. As to conditions: for enhancement of ability to displace CP55940 versus WT hCB2 / increase in affinity over WT hCB2 receptor: C6.47(257)A vs WT; for Ki: mean (95% CI).
Experiment [12] concerns the target T2, hCB2 C6.47(257)S mutant receptor. The experiment is described as follows: Inhibition of forskolin-stimulated cAMP accumulation, hCB2 C6.47. The class given is cell-based. The settings on record: read-out: IC50, inhibition of forskolin-stimulated cAMP accumulation; HEK293 cells, 5 μM forskolin, 5 min; mean (95% CI).
In experiment [13] the target is T3, WT hCB2 receptor. The experiment is described as follows: Inhibition of forskolin-stimulated cAMP accumulation, WT hCB2 cells. As to conditions: read-out: IC50, inhibition of forskolin-stimulated cAMP accumulation; HEK293 cells, 5 μM forskolin, 5 min; mean (95% CI). The class given is cell-based.
Experiment [14] has as its system CB2 receptor S7.39A mutant. The settings on record: ref Rhee (2002); cited from earlier work.
Experiment [15] has as its system C6.47(257)K, C6.47(257)I, C6.47(257)L, C6.47(257)D or C6.47(257)Y mutant hCB2 receptors. The experiment in a line: Saturation-binding assay, further C6.47. Also noted: species or system human. The settings on record: data not shown.

In general, Ki refers to a dissociation constant, usually derived from enzyme kinetics or from competition with a known ligand. A higher Ki goes with lower affinity. Broadly, the IC50 is the concentration that gives 50% inhibition.

Sequence of hCB1 K3.28(192)A mutant receptor (P21554 whole entry K192A): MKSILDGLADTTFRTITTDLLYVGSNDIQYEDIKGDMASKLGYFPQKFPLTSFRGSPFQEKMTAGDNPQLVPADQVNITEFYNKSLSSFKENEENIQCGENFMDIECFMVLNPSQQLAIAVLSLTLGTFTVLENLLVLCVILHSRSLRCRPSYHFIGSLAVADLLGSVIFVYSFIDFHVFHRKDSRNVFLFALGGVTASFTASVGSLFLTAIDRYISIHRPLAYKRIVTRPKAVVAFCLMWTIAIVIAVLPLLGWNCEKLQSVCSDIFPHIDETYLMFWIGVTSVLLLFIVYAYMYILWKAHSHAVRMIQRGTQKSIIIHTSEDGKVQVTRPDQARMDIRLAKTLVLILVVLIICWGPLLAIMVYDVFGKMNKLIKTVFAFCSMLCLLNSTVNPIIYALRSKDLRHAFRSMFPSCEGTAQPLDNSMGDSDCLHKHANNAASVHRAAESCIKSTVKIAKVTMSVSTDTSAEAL
Sequence of hCB2 K3.28(109)A mutant receptor (P34972 whole entry K109A): as the sequence (P34972 whole entry C257A) above, with K109A, A257C counted along it

`CC(C)(CCCCCCN=C=S)c1cc(O)c2c(c1)OC(C)(C)C1CCC(CO)CC21` (single isomer, unassigned; (-)) [AM-841, (−)-7′-isothiocyanato-11-hydroxy-1′,1′-di-methylheptylhexahydrocannabinol]: the inhibition constant Ki entry in experiment [1] was “No Specific Binding”; in experiment [4] it was 2.31 nM; in [7] (radioligand [3H]-CP55940), 1.68 nM; in [7] (radioligand [3H]-WIN55212-2), 1.5 nM; in [11] (radioligand [3H]-CP55940) it was 0.71 nM; in experiment [11] (radioligand [3H]-WIN55212-2), 0.7 nM. Also, the IC50 was 6.01 nM in [2], 2.88 nM in experiment [12] and 0.079 nM at WT hCB2 receptor [13]. Further, the “decrease in [3H]-CP55940 Bmax after AM-841 pretreatment” value in experiment [3] and in experiment [5] was “no distinct decrease” each time. Besides, the “Bmax for [3H]-CP55940 binding after preincubation” value at WT hCB2 receptor [6] (9 nM AM-841, 1 hr, 30°C, then extensive wash-out, control membranes 1.05) is 0.22 pmol/mg. Moreover, the “decrease in [3H]-CP55940 binding after AM-841 pretreatment” value was ~ 80% at WT hCB2 receptor [6] (9 nM AM-841, 1 hr, 30°C, washed); ~ 80% in [8]; ~ 80% in experiment [9]. In addition, at WT hCB2 receptor [6] (data not shown), the “irreversible AM-841 binding” value is ~ 80%. In addition, the “increase in affinity over WT hCB2 receptor” value (from here on “increase in affinity”) in experiment [7] (radioligand [3H]-WIN55212-2) and in experiment [11] (radioligand [3H]-WIN55212-2) was 3–6 fold each time. The “specific binding in competitive binding assay” value in [10] is listed as “no specific binding”. The “enhancement of ability to displace CP55940 versus WT hCB2” value in experiment [11] (radioligand [3H]-CP55940) is listed as “at least 2 fold”.
With `CN1CCCCC1Cn1cc(C(=O)c2ccccc2I)c2ccccc21` (centres unmarked) [AM-2233], in [7] (radioligand [3H]-WIN55212-2), the “increase in affinity” value is “over 11 fold” and affinity was put at a Ki of 0.8 nM. Also, in [11] (radioligand [3H]-WIN55212-2), the “increase in affinity” value is on record as “over 11 fold” and the affinity, expressed as Ki, was 0.5 nM.
As for `CC(C)(CCCCCCBr)c1cc(O)c2c(c1)OC(C)(C)C1CCC(CO)CC21` (centres unmarked) [AM-4043], the Ki in experiment [7] (radioligand [3H]-CP55940) was 1.51 nM; in experiment [7] (radioligand [3H]-WIN55212-2), 1.4 nM; in [11] (radioligand [3H]-CP55940) it was 0.88 nM; in [11] (radioligand [3H]-WIN55212-2), 0.8 nM. Moreover, in [11] (radioligand [3H]-CP55940), the “enhancement of ability to displace CP55940 versus WT hCB2” value was “at least 2 fold”.
For the compound `CCCCCCC(C)(C)c1cc(O)c2c(c1)OC(C)(C)[C@@H]1CC[C@@H](CO)C[C@@H]21` [AM-4056], the Ki entry in experiment [1] was “No Specific Binding”; in experiment [4], 1.14 nM; in experiment [7] (radioligand [3H]-CP55940) it was 1.52 nM; in experiment [7] (radioligand [3H]-WIN55212-2), 1.2 nM; in experiment [11] (radioligand [3H]-CP55940), 1.03 nM; in experiment [11] (radioligand [3H]-WIN55212-2), 0.5 nM. Moreover, the 50% inhibitory concentration (IC50) in experiment [2] was 2.62 nM; in experiment [12], 8.82 nM; on WT hCB2 receptor [13], 3.27 nM. Moreover, the “enhancement of ability to displace CP55940 versus WT hCB2” value in experiment [11] (radioligand [3H]-CP55940) is “at least 2 fold”.
Turning to `CCCCCCC(C)(C)c1cc(O)c2c(c1)OC(C)(C)[C@@H]1CC[C@@H](CO)C[C@@H]21` [HU-243], the “loss of affinity in S7.39A mutant” value in experiment [14] is reported as “over 10 fold”.
Consider `CCCCCCC(C)(C)c1ccc([C@@H]2C[C@H](O)CC[C@H]2CCCO)c(O)c1` [[^3H]-CP55940], for which, in experiment [15], the “specific binding of radioligand” value is recorded as “no specific binding”.

The record behind these values is publication PMC3700404 (Chemistry & biology, 2008).
